Earlier results, collected in patent US10266741B2, “Apparatus and method for addition of ADH enzyme inhibitors to existing engine cooling systems” (priority 2016, dated 2019).

Tested on: humans
Details: ingestion, Federal Register Vol. 63, No. 27, Feb. 10, 1998

## OCCO [EG, ethylene glycol]
  known toxin to humans at relatively low levels (reported as low as): 1,570 mg/kg
